In US8268838B2, “Substituted purinyl-pyrazole derivatives and their use as potassium channel modulators” (Neurosearch A/S, priority 2008, dated 2012):

Biological target: T1, hSK3 channels (Homo sapiens, UniProt Q9UGI6)
T1 construct: expressed in transfected cells; host or cells: HEK293
Assay: Whole-cell patch-clamp recording of ionic current through SK channels (subtype 3) in HEK293 cells expressing hSK3
Assay type: cell-based
Protocol: The ionic current through small-conductance Ca^2+-activated K^+ channels (SK channels, subtype 3) is recorded using the whole-cell configuration of the patch-clamp technique in a classic patch-clamp set-up using HEK293 tissue culture cells expressing hSK3 channels as described in e.g. WO 2006/100212.
The SC100 value determined is defined as the Stimulating Concentration required for increasing the baseline current by 100%. The SC100 value determined for Compound 6.5 of the invention was 0.3 μM, which is an indication of its SK3 activating properties.

SC100 (Stimulating Concentration required for increasing the baseline current by 100%): 0.3 µM
Structure (SMILES): Cc1cc(C)n(-c2nc(N(C(=O)OCC(C)C)c3ccc(Cl)cc3)c3ncn(C)c3n2)n1 [Compound 6.5, (4-Chloro-Phenyl)-[2-(3,5-Dimethyl-Pyrazol-1-yl)-9-Methyl-9H-Purin-6-yl]-Carbamic Acid Isobutyl Ester]
